Laboratory results taken from ChEMBL document CHEMBL1130666, “Benzimidazole derivatives as arginine mimetics in 1,4-benzodiazepine nonpeptide vitronectin receptor (alpha v beta 3) antagonists” (Bioorg Med Chem Lett, 1998).

Tests used:
Integrin alpha-V/beta-3 [1] = molecular target: T1, Integrin alpha-V/beta-3 (Homo sapiens, UniProt P05106+P06756); assay: Binding affinity evaluated against vitronectin receptor (alphaV-beta3) receptor; assay type: protein-complex assay
Integrin alpha-V/beta-3 [2] = molecular target: T1, Integrin alpha-V/beta-3; assay: Effect against adhesion of HEK 293 cells transfected with human alpha-v beta-3 to vitronectin coated plates; assay type: functional, cell-based, HEK293
[3] = molecular target: Integrin alpha-IIb/beta-3 (Homo sapiens, UniProt P05106+P08514); assay: Affinity for alphaIIb-beta3 receptor; assay type: protein-complex assay
Sequence of Integrin alpha-IIb/beta-3 (P05106 27-788 limits assumed): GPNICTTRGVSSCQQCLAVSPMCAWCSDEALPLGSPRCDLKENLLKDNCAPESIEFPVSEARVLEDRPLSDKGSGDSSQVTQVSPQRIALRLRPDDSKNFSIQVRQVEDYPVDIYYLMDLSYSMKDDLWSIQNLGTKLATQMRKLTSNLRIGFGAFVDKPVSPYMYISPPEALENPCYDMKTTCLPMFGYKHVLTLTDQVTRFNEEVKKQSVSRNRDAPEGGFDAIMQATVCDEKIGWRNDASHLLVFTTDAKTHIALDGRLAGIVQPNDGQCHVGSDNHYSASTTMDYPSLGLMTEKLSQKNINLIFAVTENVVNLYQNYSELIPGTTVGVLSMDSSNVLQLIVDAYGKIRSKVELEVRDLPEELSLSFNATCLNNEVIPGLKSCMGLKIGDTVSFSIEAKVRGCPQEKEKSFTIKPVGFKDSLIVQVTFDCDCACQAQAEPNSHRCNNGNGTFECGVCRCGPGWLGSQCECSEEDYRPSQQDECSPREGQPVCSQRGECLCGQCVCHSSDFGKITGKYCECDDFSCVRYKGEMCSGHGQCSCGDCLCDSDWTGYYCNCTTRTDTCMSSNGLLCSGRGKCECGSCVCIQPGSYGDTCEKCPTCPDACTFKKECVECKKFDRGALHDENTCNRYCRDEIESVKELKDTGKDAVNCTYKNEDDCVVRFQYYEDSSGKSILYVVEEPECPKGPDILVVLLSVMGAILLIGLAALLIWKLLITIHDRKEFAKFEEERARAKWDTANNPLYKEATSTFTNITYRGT
Sequence of Integrin alpha-IIb/beta-3 (P08514 32-887 limits assumed): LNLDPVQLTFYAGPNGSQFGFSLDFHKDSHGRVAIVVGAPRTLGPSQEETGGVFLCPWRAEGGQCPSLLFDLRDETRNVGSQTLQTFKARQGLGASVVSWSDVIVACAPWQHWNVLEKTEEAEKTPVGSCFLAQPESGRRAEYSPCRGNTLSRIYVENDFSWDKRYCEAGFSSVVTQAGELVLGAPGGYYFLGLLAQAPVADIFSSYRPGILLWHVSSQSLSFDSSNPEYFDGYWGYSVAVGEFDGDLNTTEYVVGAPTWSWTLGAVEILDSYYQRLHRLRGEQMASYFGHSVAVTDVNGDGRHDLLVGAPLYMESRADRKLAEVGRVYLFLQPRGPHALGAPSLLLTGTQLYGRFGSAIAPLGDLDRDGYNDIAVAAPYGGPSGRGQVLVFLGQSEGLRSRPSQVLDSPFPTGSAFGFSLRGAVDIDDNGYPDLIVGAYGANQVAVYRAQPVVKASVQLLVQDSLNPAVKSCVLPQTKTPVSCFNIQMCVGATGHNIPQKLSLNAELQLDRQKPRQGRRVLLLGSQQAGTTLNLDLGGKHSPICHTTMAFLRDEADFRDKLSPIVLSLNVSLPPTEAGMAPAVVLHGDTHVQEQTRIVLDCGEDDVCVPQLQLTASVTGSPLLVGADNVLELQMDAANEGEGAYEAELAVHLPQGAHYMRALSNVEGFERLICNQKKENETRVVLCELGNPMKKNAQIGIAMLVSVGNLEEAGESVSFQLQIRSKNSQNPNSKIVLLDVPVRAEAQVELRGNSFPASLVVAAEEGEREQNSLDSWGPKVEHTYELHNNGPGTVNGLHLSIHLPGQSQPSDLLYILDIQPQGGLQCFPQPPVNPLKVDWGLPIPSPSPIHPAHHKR
Sequence of Integrin alpha-IIb/beta-3 (P08514 891-1039 limits assumed): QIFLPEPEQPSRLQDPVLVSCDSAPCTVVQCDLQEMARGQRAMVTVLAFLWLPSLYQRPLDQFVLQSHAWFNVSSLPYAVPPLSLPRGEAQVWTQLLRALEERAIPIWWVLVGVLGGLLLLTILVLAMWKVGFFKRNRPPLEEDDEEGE

T1 sequence (P05106 27-788 limits assumed): as the sequence (P05106 27-788 limits assumed) above
T1 sequence (P06756 31-889 limits assumed): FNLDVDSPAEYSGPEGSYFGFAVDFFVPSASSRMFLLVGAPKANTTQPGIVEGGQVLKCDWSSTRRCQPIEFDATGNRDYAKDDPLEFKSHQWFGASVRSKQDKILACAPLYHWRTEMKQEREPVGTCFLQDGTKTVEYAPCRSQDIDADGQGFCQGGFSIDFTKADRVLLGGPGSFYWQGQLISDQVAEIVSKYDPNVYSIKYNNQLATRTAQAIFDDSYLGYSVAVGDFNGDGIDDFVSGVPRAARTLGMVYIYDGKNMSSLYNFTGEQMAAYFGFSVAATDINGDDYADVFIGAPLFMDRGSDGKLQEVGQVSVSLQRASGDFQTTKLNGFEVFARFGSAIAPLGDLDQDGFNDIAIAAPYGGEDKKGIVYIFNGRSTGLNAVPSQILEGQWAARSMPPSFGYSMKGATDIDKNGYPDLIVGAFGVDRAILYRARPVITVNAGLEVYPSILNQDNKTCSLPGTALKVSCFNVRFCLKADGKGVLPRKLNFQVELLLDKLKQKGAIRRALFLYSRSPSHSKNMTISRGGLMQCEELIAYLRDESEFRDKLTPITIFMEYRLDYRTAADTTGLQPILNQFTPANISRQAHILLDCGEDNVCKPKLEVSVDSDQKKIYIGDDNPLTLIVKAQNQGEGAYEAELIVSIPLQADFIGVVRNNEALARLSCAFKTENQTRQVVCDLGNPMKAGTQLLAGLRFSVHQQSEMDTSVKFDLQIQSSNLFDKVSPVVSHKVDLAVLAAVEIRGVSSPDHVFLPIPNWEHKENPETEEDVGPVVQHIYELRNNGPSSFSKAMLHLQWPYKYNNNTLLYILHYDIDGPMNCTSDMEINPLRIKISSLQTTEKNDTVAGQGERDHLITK
T1 sequence (P06756 891-1048 limits assumed): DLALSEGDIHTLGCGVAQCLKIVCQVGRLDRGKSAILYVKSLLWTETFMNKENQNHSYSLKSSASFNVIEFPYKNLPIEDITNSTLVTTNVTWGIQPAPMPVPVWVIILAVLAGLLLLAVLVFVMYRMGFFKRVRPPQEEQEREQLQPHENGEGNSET

SMILES	Ki (Integrin alpha-V/beta-3 [1]) [nM]	IC50 (Integrin alpha-V/beta-3 [2]) [nM]	Ki [3] [nM]
CN1Cc2cc(C(=O)N(Cc3nc4ccccc4[nH]3)C3CCCCC3)ccc2N[C@@H](CC(=O)O)C1=O	750		
CN(Cc1nc2c([N+](=O)[O-])cccc2[nH]1)C(=O)c1ccc2c(c1)CN(C)C(=O)[C@H](CC(=O)O)N2	13	1100	
CC(C)N1Cc2cc(C(=O)NCc3nc4ccccc4[nH]3)ccc2N[C@@H](CC(=O)O)C1=O (racemic)	20	5100	
COCCN1Cc2cc(C(=O)N(C)Cc3nc4ccccc4[nH]3)ccc2N[C@@H](CC(=O)O)C1=O (racemic)	3	340	
CN(Cc1nc2ccccc2[nH]1)C(=O)c1ccc2c(c1)CN(CCc1ccc3c(c1)OCO3)C(=O)[C@H](CC(=O)O)N2 (racemic)	6	250	
CN(Cc1nc2ccc(C(F)(F)F)cc2[nH]1)C(=O)c1ccc2c(c1)CN(C)C(=O)[C@H](CC(=O)O)N2	8.5	1000	
CN(Cc1nc2ccc(N)cc2[nH]1)C(=O)c1ccc2c(c1)CN(C)C(=O)[C@H](CC(=O)O)N2 (racemic)	19	900	
CN(Cc1nc2cc(F)c(F)cc2[nH]1)C(=O)c1ccc2c(c1)CN(C)C(=O)[C@H](CC(=O)O)N2	2.5	540	
CN(Cc1nc2c([nH]1)CCCC2)C(=O)c1ccc2c(c1)CN(C)C(=O)[C@H](CC(=O)O)N2	5		2750
CN1Cc2cc(C(=O)NCc3cc4ccccc4[nH]3)ccc2N[C@@H](CC(=O)O)C1=O (racemic)	110		> 50000
COCCN1Cc2cc(C(=O)NCc3nc4ccccc4[nH]3)ccc2N[C@@H](CC(=O)O)C1=O (racemic)	28	3000	
COc1ccc(OC)c2[nH]c(CN(C)C(=O)c3ccc4c(c3)CN(C)C(=O)[C@H](CC(=O)O)N4)nc12	1300		
CN(Cc1nc2cc(Cl)ccc2[nH]1)C(=O)c1ccc2c(c1)CN(C)C(=O)[C@H](CC(=O)O)N2 (racemic)	11	900	
O=C(O)C[C@@H]1Nc2ccc(C(=O)NCc3nc4ccccc4[nH]3)cc2CN(Cc2ccccc2)C1=O	15	1500	
CN(Cc1nc2ccccc2n1C)C(=O)c1ccc2c(c1)CN(C)C(=O)[C@H](CC(=O)O)N2	70		28000
CN(Cc1nc2cc3c(cc2[nH]1)OCO3)C(=O)c1ccc2c(c1)CN(C)C(=O)[C@H](CC(=O)O)N2	9	690	
CN(Cc1nc2ccccc2[nH]1)C(=O)c1ccc2c(c1)CN(CCc1ccccc1)C(=O)[C@H](CC(=O)O)N2	4	90	
O=C(O)C[C@@H]1Nc2ccc(C(=O)NCc3nc4ccccc4[nH]3)cc2CN(CC(=O)O)C1=O (racemic)	27	4500	
O=C(O)C[C@@H]1Nc2ccc(C(=O)NCc3nc4ccccc4[nH]3)cc2CN(CCc2ccc3c(c2)OCO3)C1=O (racemic)	6.5	670	
O=C(O)C[C@@H]1Nc2ccc(C(=O)NCc3nc4ccccc4[nH]3)cc2CN(CCc2ccccc2)C1=O (racemic)	9	750	

SMILES	Ki (Integrin alpha-V/beta-3 [1]) [nM]	IC50 (Integrin alpha-V/beta-3 [2]) [nM]	Ki [3] [nM]
COc1cc2nc(CN(C)C(=O)c3ccc4c(c3)CN(C)C(=O)[C@H](CC(=O)O)N4)[nH]c2cc1OC	180		
CN(Cc1nc2c(N)cccc2[nH]1)C(=O)c1ccc2c(c1)CN(C)C(=O)[C@H](CC(=O)O)N2	5.5	810	
CN1Cc2cc(C(=O)NCc3nc4ccccc4[nH]3)ccc2N[C@@H](CC(=O)O)C1=O		1650	
CN1Cc2cc(C(=O)N(Cc3nc4ccccc4[nH]3)Cc3nc4ccccc4[nH]3)ccc2N[C@@H](CC(=O)O)C1=O	2.5	480	
O=C(O)C[C@@H]1Nc2ccc(C(=O)NCc3nc4ccccc4[nH]3)cc2CN(CCc2cccnc2)C1=O	10	350	
CN(Cc1nc2ccccc2[nH]1)C(=O)c1ccc2c(c1)CNC(=O)[C@H](CC(=O)O)N2	6.5	500	
Cc1cccc2[nH]c(CN(C)C(=O)c3ccc4c(c3)CN(C)C(=O)[C@H](CC(=O)O)N4)nc12	2	480	
CN(Cc1nc2ccccc2[nH]1)C(=O)c1ccc2c(c1)CN(CCC(C)(C)C)C(=O)[C@H](CC(=O)O)N2 (racemic)	1.6	180	
CN(Cc1nc2ccccc2o1)C(=O)c1ccc2c(c1)CN(C)C(=O)[C@H](CC(=O)O)N2 (racemic)	1100		30000
CN1Cc2cc(C(=O)N(CC#N)Cc3nc4ccccc4[nH]3)ccc2N[C@@H](CC(=O)O)C1=O	4	810	
CCCCN(Cc1nc2ccccc2[nH]1)C(=O)c1ccc2c(c1)CN(C)C(=O)[C@H](CC(=O)O)N2	3.5	520	
CN(Cc1nc2ccccc2[nH]1)C(=O)c1ccc2c(c1)CN(Cc1ccccc1)C(=O)[C@H](CC(=O)O)N2 (racemic)	1.9	510	
CN1Cc2cc(C(=O)NCc3ncc[nH]3)ccc2N[C@@H](CC(=O)O)C1=O (racemic)	2900		47000
CN1Cc2cc(C(=O)N(CCc3ccccc3)Cc3nc4ccccc4[nH]3)ccc2N[C@@H](CC(=O)O)C1=O	5	280	
CN(Cc1nc2cc(C#N)ccc2[nH]1)C(=O)c1ccc2c(c1)CN(C)C(=O)[C@H](CC(=O)O)N2 (racemic)	15	690	
CN(Cc1nc2ccc([N+](=O)[O-])cc2[nH]1)C(=O)c1ccc2c(c1)CN(C)C(=O)[C@H](CC(=O)O)N2 (racemic)	14	3000	
CN1Cc2cc(C(=O)NCc3nc4ccccc4[nH]3)ccc2N[C@@H](CC(=O)O)C1=O (racemic)	24	3600	
CN(Cc1nc2ccccc2s1)C(=O)c1ccc2c(c1)CN(C)C(=O)[C@H](CC(=O)O)N2 (racemic)	480		29000
O=C(O)C[C@@H]1Nc2ccc(C(=O)NCc3nc4ccccc4[nH]3)cc2CNC1=O	30	5000	
CC(C)(C)CCN1Cc2cc(C(=O)NCc3nc4ccccc4[nH]3)ccc2N[C@@H](CC(=O)O)C1=O (racemic)	15	1400	
